The structures appear in SMILES notation.

In the first experiment the target is T1, indoleamine 2,3-dioxygenase (IDO) activity in Hela cells (Homo sapiens, UniProt P14902).
T1 construct: a certain concentration of IFN-γ can induce Hela cells to express IDO; host or cells: HeLa cells induced with IFN-γ
T1 sequence (P14902 whole entry): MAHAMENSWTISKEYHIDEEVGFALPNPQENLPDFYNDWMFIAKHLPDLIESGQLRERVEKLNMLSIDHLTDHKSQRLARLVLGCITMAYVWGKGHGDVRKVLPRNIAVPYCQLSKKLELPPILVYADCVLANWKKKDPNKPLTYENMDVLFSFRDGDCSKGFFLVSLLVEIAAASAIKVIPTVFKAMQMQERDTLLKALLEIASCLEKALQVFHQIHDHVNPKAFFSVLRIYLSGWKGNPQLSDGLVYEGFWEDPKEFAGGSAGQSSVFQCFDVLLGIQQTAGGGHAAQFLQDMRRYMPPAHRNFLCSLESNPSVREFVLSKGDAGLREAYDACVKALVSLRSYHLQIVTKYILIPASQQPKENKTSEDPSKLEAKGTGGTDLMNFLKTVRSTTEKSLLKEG
The experiment in a line: IDO Intracellular Activity Inhibition Test (Ehrlich method, IFN-γ induced Hela cells). The class given is cell-based. Particulars: IDO activity in Hela cells induced by IFN-γ, 24 hours incubation, OD490. As to the method:
IDO Intracellular Activity Inhibition Test
The effect of the compound of the present invention on the indoleamine 2,3-dioxygenase (IDO) activity in Hela cells induced by IFN-γ was evaluated by the Ehrlich method.
The principle underlined for this experiment is summarized as follows: The expression of IDO in Hela cells is low in the absence of any induction. However, a certain concentration of IFN-γ can induce Hela cells to express IDO, so that it can catalyze the production of N-formylkynurenine from tryptophan. The produced N-formylkynurenine can be hydrolyzed by trichloroacetic acid to kynurenine, then a color reaction of the achieved kynurenine with Ehrlich reagent can be used to detect the activity of IDO. The absorbance at 490 nm (OD490) is in proportion to the activity of IDO.
The compound was dissolved and diluted to 5 mM with DMSO (Sigma, catalog number: D5879), then serially diluted in 3 folds each time with DMSO to a minimum concentration of 2.29 μM. The diluent at each concentration point was further diluted in 50 folds with DMEM medium (ThermoFisher, catalog number: 11995073) free of FBS. If the IC50 value of the compound was very low, the initial concentration of the compound could be lowered. Hela cells (ATCC, catalog number CCL-2) were cultured in DMEM complete medium containing 10% FBS (GBICO, catalog number 10099-141) and 100 U/mL penicillin streptomycin mixture (ThermoFisher, catalog number 15140122). When the cell coverage in the culture vessel reached 80-90%, 0.25% pancreatin (containing EDTA) (ThermoFisher, catalog number 25200056) was used to digest and blow off the cells, and the cells were grown in a 96-well plate (Corning, catalog number 3599), 30,000 cells per well (80 μL DMEM medium). The 96-well plate was then incubated in an incubator (37° C., 5% CO2) overnight (18-20 hours).
10 μL of DMEM diluted compound and 10 μL of 500 ng/mL INF-γ were added to each well, and mixed gently. The 96-well plate was placed into an incubator (37° C., 5% CO2) for further incubation. The mixture was taken out and centrifuged at 2000×g at room temperature for 5 minutes after 24 hours of incubation, the supernatant was transferred to the reaction plate (Sigma, catalog number CLS3695), one-twentieth of trichloroacetic acid (Sigma, product number T9159) was added, and incubated at 60° C. after mixed well. 30 minutes later, the reaction plate was taken out and centrifuged at 2000×g at room temperature for 5 minutes, the supernatant was transferred to a clean reaction plate, equal volume of Ehrlich reagent was added, and the mixture was incubated at room temperature after mixed well. The OD490 of each well was determined 5 minutes later.
In the experiment, OD490 of the DMEM medium control group without IFN-γ was used as OD490100% inhbition; OD490 of the group in which the final concentration of IFN-γ in DMSO was 0.2% was used ads OD4900% inhbition.
The percent inhibition of IDO activity in Hela cells by a compound can be calculated by the following formula: […]
IC50 of a compound was calculated by the following formula using 8 concentration points and XLfit (ID Business Solutions Ltd., UK) software
Y=Bottom+(Top−Bottom)/(1+10^((log IC50−X)*slope factor))
where Y is inhibition percentage. Bottom is the bottom plateau of the S-type curve, Top is the top plateau of the S-type curve, X is the logarithm of the concentration of the tested compound, and slope factor is the slope coefficient of the curve.
As to `C[C@H]([C@H]1CC[C@@H](c2ccnc3ccc(F)cc32)CC1)n1[nH]c2ncc(Cl)cc2c1=O` [Compound 9, 5-chloro-2-((R)-1-((1s,4S)-4-(6-fluoroquinolin-4-yl)cyclohexyl)ethyl)-1,2-dihydro-3H-pyrazolo[3,4-b]pyridin-3-one], the IC50 was less than 50 nM.
For the molecule `C[C@H]([C@H]1CC[C@@H](c2ccnc3ccc(F)cc32)CC1)n1[nH]c2cc(Cl)c(Cl)cc2c1=O` [Compound 10, 5,6-dichloro-2-((R)-1-((1s,4S)-4-(6-fluoroquinolin-4-yl)cyclohexyl)ethyl)-1,2-dihydro-3H-indazol-3-one], the IC50 was less than 50 nM.
Same read-out and setting: the result for `O=c1c2ccc(Cl)cc2[nH]n1C[C@H]1CC[C@H](c2ccnc3ccc(F)cc32)CC1` [Compound 1, 6-chloro-2-(((1r,4r)-4-(6-fluoroquinolin-4-yl)cyclohexyl)methyl)-1,2-dihydro-3H-indazol-3-one] reads 50 to 200 nM.
Same read-out and setting: the result for `CC([C@H]1CC[C@H](c2ccnc3ccc(F)cc32)CC1)n1[nH]c2cc(Cl)ccc2c1=O` (stereo partly shown) [Compound 3, 6-chloro-2-(1-((1r,4r)-4-(6-fluoroquinolin-4-yl)cyclohexyl)ethyl)-1,2-dihydro-3H-indazol-3-one] reads 50 to 200 nM.
Regarding `C[C@H]([C@H]1CC[C@@H](c2ccnc3ccc(F)cc32)CC1)n1[nH]c2cc(Cl)ccc2c1=O` [Compound 6, 6-chloro-2-((R)-1-((1s,4S)-4-(6-fluoroquinolin-4-yl)cyclohexyl)ethyl)-1,2-dihydro-3H-indazol-3-one], the IC50 is less than 50 nM.
Molecule `O=c1c2ccc(Cl)cc2[nH]n1C[C@H]1CC[C@@H](c2ccnc3ccc(F)cc32)CC1` [Compound 2, 6-chloro-2-(((1s,4s)-4-(6-fluoroquinolin-4-yl)cyclohexyl)methyl)-1,2-dihydro-3H-indazol-3-one] registered an IC50 of less than 50 nM.
Take `C[C@H]([C@H]1CC[C@@H](c2ccnc3ccc(F)cc32)CC1)n1[nH]c2ccc(Cl)cc2c1=O` [Compound 7, 5-chloro-2-((R)-1-((1s,4S)-4-(6-fluoroquinolin-4-yl)cyclohexyl)ethyl)-1,2-dihydro-3H-indazol-3-one]: the IC50 is less than 50 nM.
`C[C@H]([C@H]1CC[C@@H](c2ccnc3ccc(F)cc32)CC1)n1[nH]c2ccc(Br)cc2c1=O` [Compound 11, 5-bromo-2-((R)-1-((1s,4S)-4-(6-fluoroquinolin-4-yl)cyclohexyl)ethyl)-1,2-dihydro-3H-indazol-3-one] came in with an IC50 of less than 50 nM.
Take `C[C@H]([C@H]1CC[C@@H](c2ccnc3ccc(F)cc32)CC1)n1[nH]c2cc(Cl)cnc2c1=O` [Compound 8, 6-chloro-2-((R)-1-((1s,4S)-4-(6-fluoroquinolin-4-yl)cyclohexyl)ethyl)-1,2-dihydro-3H-pyrazolo[4,3-b]pyridin-3-one]: the IC50 was less than 50 nM.
The same measure, in the same setting: the result for `CC([C@H]1CC[C@@H](c2ccnc3ccc(F)cc32)CC1)n1[nH]c2cc(Cl)ccc2c1=O` (stereo partly shown) [Compound 4, 6-chloro-2-(1-((1s,4s)-4-(6-fluoroquinolin-4-yl)cyclohexyl)ethyl)-1,2-dihydro-3H-indazol-3-one] reads less than 50 nM; that for `Cc1cc([C@H]2CC[C@@H]([C@@H](C)n3[nH]c4cc(Cl)ccc4c3=O)CC2)ccn1` [Compound 5, 6-chloro-2-((R)-1-((1s,4S)-4-(2-methylpyridin-4-yl)cyclohexyl)ethyl)-1,2-dihydro-3H-indazol-3-one], less than 50 nM.

A further experiment deals with T2, plasma IDO activity (Mus musculus, UniProt P28776).
T2 construct: host or cells: mice, in vivo
T2 sequence (P28776 whole entry): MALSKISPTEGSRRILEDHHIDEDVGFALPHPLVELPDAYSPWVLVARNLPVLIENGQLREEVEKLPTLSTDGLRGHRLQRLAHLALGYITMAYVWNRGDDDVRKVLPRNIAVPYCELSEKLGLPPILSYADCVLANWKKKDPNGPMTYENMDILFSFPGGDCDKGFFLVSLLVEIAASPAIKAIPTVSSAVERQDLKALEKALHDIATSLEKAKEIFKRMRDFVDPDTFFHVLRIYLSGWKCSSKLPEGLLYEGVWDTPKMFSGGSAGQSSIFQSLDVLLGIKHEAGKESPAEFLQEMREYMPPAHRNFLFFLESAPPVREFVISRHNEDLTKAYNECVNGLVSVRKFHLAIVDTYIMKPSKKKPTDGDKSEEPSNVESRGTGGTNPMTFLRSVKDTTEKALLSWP
Assay: not given
Particulars: single administration, blank mice; cited from earlier work.
On to `NS(=O)(=O)NCCNc1nonc1C(=NO)Nc1ccc(F)c(Br)c1` [INCB-024360], for which the “inhibition of plasma IDO activity” value is “effectively inhibit the plasma IDO activity of blank mice to be at the level of IDO-deficient mice”.

In the next experiment the test system is CT26 tumors.
Assay: not given
Particulars: repeated administration; cited from earlier work.
With `NS(=O)(=O)NCCNc1nonc1C(=NO)Nc1ccc(F)c(Br)c1` [INCB-024360], the “expansion of CT26 tumors” value is recorded as “hinders the expansion of CT26 tumors”.

A word on the IC50: it is the midpoint of a concentration-inhibition curve. Low values mean greater potency in that assay, high ones weaker potency in that assay.

The record behind these values is patent US20210221808A1, “3-OXAZOLINONE COMPOUND, PREPARATION METHOD THEREFOR AND PHARMACEUTICAL APPLICATION THEREOF” (Beijing Innocare Pharma Tech Co., Ltd., priority 2018, published 2021).
